Laboratory results published in ChEMBL document CHEMBL1201862, “PubChem BioAssay data set” (2004).
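In this assay, cells in 96-well plates receive the compound at five concentrations for 48 hours. Endpoints are linearly interpolated between the surrounding concentrations. Abbreviation: GI50, concentration required for 50% inhibition of growth.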 Active and inactive are the calls of the source. Rule as the data show it: active = GI50 up to about 1.1 µM and inactive = higher.

Legend:
Test in all cases: NCI anticancer screen, dose series, 48 h
SNB-19 = system: SNB-19
SNB-75 = system: SNB-75
SK-MEL-5 = system: SK-MEL-5
A549 = system: A549
ACHN = system: ACHN
HL-60 = system: HL-60
HCC 2998 = system: HCC 2998
SF-268 = system: SF-268
HOP-18 = system: HOP-18
OVCAR-8 = system: OVCAR-8
U-251 = system: U-251
TK-10 = system: TK-10
UACC-257 = system: UACC-257
LOX IMVI = system: LOX IMVI
CAKI-1 = system: CAKI-1
OVCAR-4 = system: OVCAR-4
CCRF-CEM = system: CCRF-CEM
KM-20L2 = system: KM-20L2
LXFL 529 = system: LXFL 529
HCT-116 = system: HCT-116
SK-MEL-2 = system: SK-MEL-2
SR = system: SR
M14 = system: M14
SNB-78 = system: SNB-78
HOP-62 = system: HOP-62
Malme-3M = system: Malme-3M
OVCAR-5 = system: OVCAR-5
SK-MEL-28 = system: SK-MEL-28
OVCAR-3 = system: OVCAR-3
SW-620 = system: SW-620
EKVX = system: EKVX
MOLT-4 = system: MOLT-4
786-0 = system: 786-0
SN12C = system: SN12C
COLO 205 = system: COLO 205
IGROV-1 = system: IGROV-1
NCI-H226 = system: NCI-H226
RPMI-8226 = system: RPMI-8226
SK-OV-3 = system: SK-OV-3
UACC-62 = system: UACC-62
DMS-114 = system: DMS-114
M19-MEL = system: M19-MEL
SF-295 = system: SF-295
A498 = system: A498
RXF 393 = system: RXF 393
NCI-H23 = system: NCI-H23
NCI-H522 = system: NCI-H522
KM12 = system: KM12
HT-29 = system: HT-29
DLD-1 = system: DLD-1
UO-31 = system: UO-31
HCT-15 = system: HCT-15
K562 = system: K562
DMS-273 = system: DMS-273
HOP-92 = system: HOP-92
SF-539 = system: SF-539
NCI-H460 = system: NCI-H460
PC-3 = system: PC-3
MCF7 = system: MCF7
Hs-578T = system: Hs-578T
NCI/ADR-RES = system: NCI/ADR-RES
BT-549 = system: BT-549
MDA-MB-231 = system: MDA-MB-231
DU-145 = system: DU-145
MDA-MB-435 = system: MDA-MB-435
T47D = system: T47D

Measured: GI50

O=C1CC(c2ccccc2)NCN1 (stereo not drawn)
> 100 µM: HCT-15
inactive: SNB-19 > 100 µM | SNB-75 > 100 µM | SK-MEL-5 > 100 µM | A549 > 100 µM | ACHN > 100 µM | HL-60 > 100 µM | HCC 2998 > 100 µM | SF-268 > 100 µM | HOP-18 > 100 µM | OVCAR-8 > 100 µM | U-251 > 100 µM | TK-10 > 100 µM | UACC-257 > 100 µM | LOX IMVI > 100 µM | CAKI-1 > 100 µM | OVCAR-4 > 100 µM | CCRF-CEM > 100 µM | KM-20L2 > 100 µM | LXFL 529 > 100 µM | HCT-116 > 100 µM | SK-MEL-2 > 100 µM | SR > 100 µM | M14 > 100 µM | SNB-78 > 100 µM | HOP-62 > 100 µM | Malme-3M > 100 µM | OVCAR-5 > 100 µM | SK-MEL-28 > 100 µM | OVCAR-3 > 100 µM | SW-620 > 100 µM | EKVX > 100 µM | MOLT-4 > 100 µM | 786-0 > 100 µM | SN12C > 100 µM | COLO 205 > 100 µM | IGROV-1 > 100 µM | NCI-H226 > 100 µM | RPMI-8226 > 100 µM | SK-OV-3 > 100 µM | UACC-62 > 100 µM | DMS-114 > 100 µM | M19-MEL > 100 µM | SF-295 > 100 µM | A498 > 100 µM | RXF 393 > 100 µM | NCI-H23 > 100 µM | NCI-H522 > 100 µM | KM12 > 100 µM | HT-29 > 100 µM | DLD-1 > 100 µM | UO-31 > 100 µM | K562 > 100 µM | DMS-273 > 100 µM

[O-][S+](Cc1cc2c(cc1Br)OCO2)c1ccccc1 (stereo not drawn)
34.4 µM: HCT-15
inactive: HOP-92 83.9 µM | SF-539 32.7 µM | SNB-19 > 100 µM | SNB-75 > 100 µM | SK-MEL-5 61.5 µM | A549 > 100 µM | ACHN 64.6 µM | HL-60 21.4 µM | HCC 2998 > 100 µM | SF-268 59.2 µM | HOP-18 41.3 µM | OVCAR-8 41.4 µM | U-251 30.3 µM | TK-10 > 100 µM | UACC-257 51.4 µM | LOX IMVI 15.7 µM | CAKI-1 51.5 µM | OVCAR-4 67.6 µM | CCRF-CEM 19.6 µM | KM-20L2 71.4 µM | LXFL 529 44 µM | HCT-116 44.9 µM | SK-MEL-2 > 100 µM | M14 48.2 µM | SNB-78 > 100 µM | HOP-62 > 100 µM | Malme-3M 49.1 µM | OVCAR-5 > 100 µM | SK-MEL-28 98.2 µM | OVCAR-3 35.3 µM | SW-620 15.4 µM | EKVX > 100 µM | MOLT-4 26.5 µM | NCI-H460 41.4 µM | 786-0 39.1 µM | SN12C 48 µM | COLO 205 34.2 µM | IGROV-1 39.4 µM | NCI-H226 > 100 µM | RPMI-8226 24.8 µM | SK-OV-3 > 100 µM | UACC-62 33.4 µM | DMS-114 23.2 µM | M19-MEL 44.5 µM | SF-295 > 100 µM | A498 > 100 µM | RXF 393 40.6 µM | NCI-H23 68.2 µM | NCI-H522 21.6 µM | KM12 17.9 µM | HT-29 34 µM | DLD-1 24.2 µM | UO-31 47.5 µM | K562 27.5 µM | DMS-273 58.9 µM

COc1ccc2[nH]c3c(C)c4cc[n+](C)cc4c(C)c3c2c1
inactive: HOP-92 3.21 µM | SK-MEL-5 1.76 µM | PC-3 3.54 µM | ACHN 14 µM | HL-60 22 µM | HCC 2998 3.15 µM | HOP-18 3.59 µM | MCF7 2.39 µM | UACC-257 12.1 µM | LOX IMVI 10.2 µM | OVCAR-4 3.37 µM | CCRF-CEM 1.72 µM | KM-20L2 3.17 µM | HCT-116 2 µM | SK-MEL-2 3.85 µM | OVCAR-5 9.51 µM | SK-MEL-28 2.18 µM | OVCAR-3 3.09 µM | EKVX 1.16 µM | NCI-H460 1.64 µM | IGROV-1 2.19 µM | SK-OV-3 6.78 µM | UACC-62 3.48 µM | NCI/ADR-RES 22 µM | BT-549 1.87 µM | RXF 393 1.32 µM | KM12 1.62 µM | HT-29 4.83 µM | DLD-1 1.87 µM | UO-31 21.7 µM
active: SF-539 0.345 µM | SNB-19 0.273 µM | SNB-75 0.228 µM | SF-268 0.197 µM | OVCAR-8 0.305 µM | U-251 0.191 µM | Hs-578T 0.199 µM | SNB-78 0.571 µM | HOP-62 0.621 µM | Malme-3M 1.06 µM | SW-620 1.11 µM | SN12C 0.116 µM | NCI-H226 0.301 µM | DMS-114 0.412 µM | M19-MEL 0.944 µM | SF-295 0.332 µM | NCI-H23 0.649 µM | NCI-H522 0.562 µM | DMS-273 1.09 µM

CC(=O)OCc1cc2c(s1)C(=O)c1sccc1C2=O
inactive: HCC 2998 1.78 µM | TK-10 1.79 µM | CAKI-1 1.84 µM | KM-20L2 2.24 µM | HCT-116 1.74 µM | SR 1.89 µM | SNB-78 13.2 µM | COLO 205 1.65 µM | IGROV-1 1.46 µM | SK-OV-3 1.72 µM | A498 1.82 µM
active: HOP-92 0.528 µM | SF-539 0.115 µM | SNB-19 0.177 µM | SNB-75 0.057 µM | SK-MEL-5 0.0426 µM | A549 0.181 µM | MDA-MB-231 0.237 µM | PC-3 0.194 µM | ACHN 0.0881 µM | HL-60 0.29 µM | SF-268 0.154 µM | HOP-18 0.145 µM | OVCAR-8 0.183 µM | U-251 0.248 µM | MCF7 0.208 µM | UACC-257 0.0986 µM | LOX IMVI < 0.0182 µM | OVCAR-4 0.191 µM | DU-145 0.0336 µM | CCRF-CEM 0.383 µM | LXFL 529 0.308 µM | Hs-578T 0.157 µM | SK-MEL-2 0.0935 µM | M14 < 0.0139 µM | Malme-3M 0.272 µM | OVCAR-5 0.19 µM | SK-MEL-28 < 0.0386 µM | OVCAR-3 0.223 µM | SW-620 0.104 µM | EKVX 0.197 µM | MOLT-4 0.356 µM | NCI-H460 0.175 µM | 786-0 0.619 µM | SN12C 0.13 µM | NCI-H226 0.355 µM | RPMI-8226 0.239 µM | UACC-62 0.166 µM | DMS-114 0.149 µM | M19-MEL < 0.01 µM | NCI/ADR-RES 0.2 µM | SF-295 0.0541 µM | MDA-MB-435 0.0178 µM | RXF 393 0.157 µM | NCI-H23 0.018 µM | NCI-H522 0.147 µM | KM12 0.234 µM | HT-29 0.65 µM | DLD-1 0.187 µM | T47D 0.309 µM | UO-31 0.178 µM | K562 0.277 µM | DMS-273 0.155 µM
0.156 µM: HCT-15
